Here are results for 13 compounds from ChEMBL document CHEMBL1201862, “PubChem BioAssay data set” (2004).

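A five-concentration, 48-hour dose response in 96-well plates underlies each endpoint, interpolated linearly between surrounding concentrations. Here, GI50 denotes the concentration required for 50% inhibition of growth.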 Active and inactive are the calls of the source. Cut-off read from the data, not from the text of the source: active = GI50 up to about 1.1 µM and inactive = higher. Where only a bound is given, the exact number is not on record here.

What all share (assay): growth of human tumour cells (NCI), 48 h
Assay [1] has as its system OVCAR-3.
Assay [2] deals with IGROV-1.
Assay [3] deals with LOX IMVI.
Assay [4] deals with CAKI-1.
The test system of assay [5] is UACC-257.
The subject of assay [6] is NCI-H23.
Assay [7] relates to ACHN.
Assay [8] concerns HCT-116.
Assay [9] has as its system SK-MEL-28.
Assay [10] concerns HL-60.
For assay [11], the system named is NCI-H522.
The subject of assay [12] is SNB-75.
In assay [13] the test system is Malme-3M.
Assay [14] has as its system OVCAR-5.
The test system of assay [15] is KM12.
In assay [16] the test system is MOLT-4.
Assay [17] has as its system HOP-62.

As for `COc1ccc(-c2onc(-c3ccc([N+](=O)[O-])cc3)c2C2=NCCCN2)cc1`, the GI50 in assay [1] is 26.5 µM (inactive); in assay [2], > 100 µM (inactive); in assay [3], 51.9 µM (inactive); in [4] it was > 100 µM (inactive); in assay [5], 87.7 µM (inactive); in assay [6] it was > 100 µM (inactive). Moreover, the GI50 was > 100 µM (inactive) in assay [7]; 38.9 µM (inactive) in [8]; 38.4 µM (inactive) in assay [9]; 36.9 µM (inactive) in [10]; 51.3 µM (inactive) in [11]; > 100 µM (inactive) in assay [12]. Moreover, the GI50 in [13] was > 100 µM (inactive); in assay [14], > 100 µM (inactive); in assay [15] it was > 100 µM (inactive); in assay [16], 76.2 µM (inactive); in assay [17], > 100 µM (inactive).

For the compound `O=C(O)Cc1cc(=O)[nH]c2c1/C(=N/O)CCC2`, the GI50 in assay [1], in assay [2], in assay [5], in assay [6], in assay [7] and in assay [9] was > 100 µM (inactive) in each case. The GI50 in [10], in assay [11], in assay [13], in [14], in assay [15] and in assay [16] was > 100 µM (inactive) each time.

With `Cc1cc2nc3c(=O)n(C)c(=O)nc-3n(-c3ccc(Cl)cc3)c2cc1C`, the GI50 was 2.57 µM (inactive) in [1]; 14.6 µM (inactive) in assay [2]; 16.4 µM (inactive) in [4]; 6.75 µM (inactive) in [5]; 3.81 µM (inactive) in assay [6]; 11.4 µM (inactive) in assay [7]. The GI50 in assay [8] was 11.9 µM (inactive); in assay [9], 15.2 µM (inactive); in [10], 3.34 µM (inactive); in assay [11], > 10 µM (inactive); in assay [12], 11.4 µM (inactive); in assay [13], 10 µM (inactive). The GI50 in [14] is 18.5 µM (inactive); in [15], 16 µM (inactive); in assay [16] it was 11.2 µM (inactive); in assay [17], 24.4 µM (inactive).

Take `CCOC(=O)c1sc(Nc2cc(Cl)ccc2Cl)nc1C`: the GI50 was 84.1 µM (inactive) in assay [1]; 73.1 µM (inactive) in [2]; > 100 µM (inactive) in [3]; 81.8 µM (inactive) in [5]; 34.4 µM (inactive) in [6]; 35.5 µM (inactive) in assay [7]. Besides, the GI50 in assay [8] was > 100 µM (inactive); in [9], > 100 µM (inactive); in [10] it was > 100 µM (inactive); in [11] it was > 100 µM (inactive); in assay [12], 15.6 µM (inactive); in assay [13] it was > 100 µM (inactive). Also, the GI50 in assay [14] is 37.3 µM (inactive); in [15], > 100 µM (inactive); in assay [16], 29.6 µM (inactive); in [17], > 100 µM (inactive).

Consider `CCCCCCCCCCNC(=S)OC`, for which the GI50 in assay [2] was 25.7 µM (inactive); in assay [3], 15.8 µM (inactive); in assay [4] it was 28.5 µM (inactive); in assay [5], 23.8 µM (inactive); in assay [6] it was > 100 µM (inactive); in assay [7] it was 33.6 µM (inactive). For the same compound, the GI50 in assay [8] was 37.9 µM (inactive); in [9], 51.2 µM (inactive); in assay [10], 16.7 µM (inactive); in assay [11], 20.2 µM (inactive); in assay [12], 27.4 µM (inactive); in [13], 69.8 µM (inactive). The GI50 is 5.83 µM (inactive) in assay [16] and > 100 µM (inactive) in [17].

As for `Cc1ccc(C)c(N2C(=O)C(=O)C(c3nc4ccccc4o3)/C(=N\NC(=O)c3ccccc3O)C2=O)c1` (stereo not drawn), the GI50 in [1] was 16.6 µM (inactive); in [2], 6.52 µM (inactive); in assay [3], 32.4 µM (inactive); in assay [4] it was 3.75 µM (inactive); in [5], 23 µM (inactive); in assay [6], 10.7 µM (inactive). For the same compound, the GI50 is 12 µM (inactive) in assay [7]; 17.5 µM (inactive) in [8]; > 100 µM (inactive) in assay [9]; < 0.01 µM (active) in [10]; 17.5 µM (inactive) in [11]; 5.7 µM (inactive) in assay [12]. The GI50 in assay [13] was 66.1 µM (inactive); in [14] it was 58.3 µM (inactive); in assay [16], 12.8 µM (inactive); in assay [17] it was 24.9 µM (inactive).

As to `CCN(CC)CCCNC(=O)C1COc2cc(-c3cc(=O)c4ccccc4o3)ccc2O1` (stereo not drawn), the GI50 in [1] is 93.5 µM (inactive); in [2], 68.1 µM (inactive); in [3], 23.6 µM (inactive); in [4], > 100 µM (inactive); in assay [5], 21.6 µM (inactive); in [6] it was > 100 µM (inactive). For the same compound, the GI50 is 51.4 µM (inactive) in assay [7]; 37.4 µM (inactive) in [8]; 20.6 µM (inactive) in assay [9]; 36.9 µM (inactive) in assay [10]; 33.3 µM (inactive) in [11]; 45.9 µM (inactive) in [12]. The GI50 was 20.4 µM (inactive) in assay [13], 81.7 µM (inactive) in [14], 33.4 µM (inactive) in [16] and > 100 µM (inactive) in [17].

Regarding `Cc1ccc([N+](=O)[O-])cc1NC(=O)C(=O)Cc1occc(=O)c1O`, the GI50 in assay [1], in assay [2], in assay [3], in assay [4], in assay [7] and in assay [9] was > 100 µM (inactive) each time. In addition, the GI50 in assay [10], in [11], in assay [12], in assay [14], in [15] and in assay [17] was > 100 µM (inactive) each time.

Take `CC(=O)c1cc([N+](=O)[O-])ccc1OCC(=O)O`: the GI50 in assay [1], in assay [2], in assay [3], in assay [4], in assay [5] and in assay [6] was > 100 µM (inactive) in each case. The GI50 in [7], in assay [8], in [9], in assay [10], in assay [11] and in assay [12] was > 100 µM (inactive) throughout. The GI50 in assay [13], in assay [14], in assay [15], in [16] and in assay [17] was > 100 µM (inactive) in each case.

Turning to `CC(C)c1cccc2sc(NC(=O)C(=O)CC(=O)c3ccc(F)cc3)nc12`, the GI50 in assay [1], in assay [2], in assay [3], in [4], in assay [5] and in assay [6] was > 100 µM (inactive) throughout. The GI50 in assay [7] is > 100 µM (inactive); in assay [8], > 100 µM (inactive); in [9], > 100 µM (inactive); in [10] it was > 100 µM (inactive); in assay [11], > 100 µM (inactive); in [12], 59.7 µM (inactive). Also, the GI50 in assay [13], in assay [14], in assay [15] and in [17] was > 100 µM (inactive) in each case.

Regarding `CC1=C(C(=O)NCc2ccccc2)C(c2ccc(C3C(C(=O)NCc4ccccc4)=C(C)NC(C)=C3C(=O)NCc3ccccc3)cc2)C(C(=O)NCc2ccccc2)=C(C)N1`, the GI50 is 10.4 µM (inactive) in assay [1]; 18 µM (inactive) in assay [2]; 14 µM (inactive) in assay [4]; 15 µM (inactive) in assay [5]; 14.7 µM (inactive) in assay [6]; 15.6 µM (inactive) in assay [7]. Besides, the GI50 in assay [8] is 3.02 µM (inactive); in assay [9] it was 11.5 µM (inactive); in assay [10] it was 6.27 µM (inactive); in [11], 3.41 µM (inactive); in assay [12], > 10 µM (inactive); in assay [13], 14.4 µM (inactive). Further, the GI50 is 23.7 µM (inactive) in assay [14], 11.4 µM (inactive) in assay [15], 5.75 µM (inactive) in [16] and 23.2 µM (inactive) in assay [17].

`CC(Oc1ccc(OCC2CCCCC2)cc1)C(=O)N(CCO)CCO` (stereo not drawn): the GI50 in assay [1], in assay [2], in assay [3], in assay [5], in assay [6] and in [7] was > 100 µM (inactive) each time. The GI50 in [8] was > 100 µM (inactive); in assay [9] it was > 100 µM (inactive); in assay [10], > 100 µM (inactive); in assay [11] it was > 100 µM (inactive); in assay [12], 92.9 µM (inactive); in [13] it was > 100 µM (inactive). The GI50 in assay [15] and in assay [16] was > 100 µM (inactive) throughout.

For `NCCCNCCSP(=O)(O)O` [AMIFOSTINE], the GI50 was > 750 µM (inactive) in assay [1]; > 750 µM (inactive) in assay [2]; 270 µM (inactive) in [3]; > 678 µM (inactive) in assay [4]; > 750 µM (inactive) in assay [5]; > 750 µM (inactive) in [6]. Moreover, the GI50 is 743 µM (inactive) in assay [8]; > 750 µM (inactive) in assay [9]; 176 µM (inactive) in assay [10]; 389 µM (inactive) in assay [11]; > 750 µM (inactive) in assay [12]; > 335 µM (inactive) in assay [13]. Also, the GI50 in assay [14] is > 750 µM (inactive); in assay [15], 543 µM (inactive); in assay [16], 685 µM (inactive); in [17], > 321 µM (inactive).
